# Assay results taken from US20100298141A1, “SUBSTITUTED PYRIDINE N-OXIDE HERBICIDES” (E. I. DU PONT DE NEMOURS AND COMPANY, priority 2007, published 2010).
# Assays:
# barnyardgrass = assay: Test A pre-/postemergence greenhouse test; type: in vivo, Echinochloa crus-galli; conditions: for Plant response rating, Barnyardgrass: 0 to 100 scale where 0 is no effect and 100 is complete control; for Barnyardgrass plant response rating: 0 to 100 scale
# In short: (§1)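 Test compounds in non-phytotoxic solvent with surfactant were applied as a preemergence soil spray to seeded loam/sand pots and, concurrently, postemergence to plants at 2–10 cm, one- to two-leaf stage. About ten days in greenhouse, then injury visually rated against untreated controls.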
# velvetleaf = assay: Test A pre-/postemergence greenhouse test; type: in vivo, Abutilon theophrasti; conditions: for Plant response rating, Velvetleaf: 0 to 100 scale where 0 is no effect and 100 is complete control; for Velvetleaf plant response rating: 0 to 100 scale
# In short: as §1
# green foxtail = assay: Test C pre-/postemergence test; type: in vivo, Setaria viridis
# Description: (§2) Seeds of plant species selected from blackgrass (Alopecurus myosuroides), downy brome (Bromus tectorum), green foxtail (Setaria viridis), Italian ryegrass (Lolium multiflorum), wheat (Triticum aestivum), wild oat (Avena fatua), catchweed bedstraw (Galium aparine), Russian thistle (Salsola kali), […] (Cynodon dactylon), Surinam grass (Brachiaria decumbens), cocklebur (Xanthium strumarium), corn (Zea mays), crabgrass (Digitaria sanguinalis), woolly cupgrass (Eriochloa villosa), giant foxtail (Setaria faberii), Goosegrass (Eleusin indica), johnsongrass (Sorghum halepense), kochia (Kochia scoparia), lambsquarters (Chenopodium album), morningglory (Ipomoea coccinea), eastern black nightshade (Solanum ptycanthum), yellow nutsedge (Cyperus esculentus), pigweed (Amaranthus retroflexus), common ragweed (Ambrosia elation), soybean (Glycine max), common (oilseed) sunflower (Helianthus annuus), and velvetleaf (Abutilon theophrasti) were planted and treated preemergence with test chemicals formulated in a non-phytotoxic solvent mixture which included a surfactant. At the same time, plants selected from these crop and weed species and also winter barley (Hordeum vulgare), canarygrass (Phalaris minor), and chickweed (Stellaria media) were treated with postemergence applications of some of the test chemicals formulated in the same manner. Plants ranged in height from 2 to 18 cm (1- to 4-leaf stage) for postemergence treatments. […] At time of treatment, test pots were flooded to 3 cm above the soil surface, treated by application of test compounds directly to the paddy water, and then maintained at that water depth for the duration of the test. […] A dash (-) response means no test result.
# Italian ryegrass = assay: Test C pre-/postemergence test; type: in vivo, Lolium multiflorum
# Description: as §2
# goosegrass = assay: Test F preemergence test; type: in vivo, Eleusine indica; conditions: scale 0 to 100; for Plant response rating, Goosegrass: 31 g ai/ha
# Description: (§3) Seeds of plant species selected from bermudagrass (Cynodon dactylon), Surinam grass (Brachiaria decumbens), large crabgrass (Digitaria sanguinalis), green foxtail (Setaria viridis), goosegrass (Eleusine indica), johnsongrass (Sorghum halepense), kochia (Kochia scoparia), pitted morningglory (Ipomoea lacunosa), purple nutsedge (Cyperus rotundus), common ragweed (Ambrosia elation), mustard (Brassica nigra), guineagrass (Panicum maximum), […] (Paspalum dilatatum), barnyardgrass (Echinochloa crus-galli), southern sandbur (Cenchrus echinatus), common sowthistle (Sonchus oleraceous), prickly […] spinosa), Italian ryegrass (Lolium multiflorum), common purslane (Portulaca oleracea), broadleaf signalgrass (Brachiaria platyphylla), common groundsel (Senecio vulgaris), common chickweed (Stellaria media), Virginia dayflower (Commelina virginica), annual bluegrass (Poa annua), naked crabgrass (Digitaria nuda), […] cochinchinensis), quackgrass (Elytrigia repens), Canada horseweed (Conyza canadensis), field bindweed (Convolvulus arvensis), […] (Bidens bipinnata), common mallow (Malva sylvestris), Russian thistle (Salsola kali), and sugarcane (Saccharum officinarum) were planted and treated preemergence with test chemicals formulated in a non-phytotoxic solvent mixture which included a surfactant. At a different time, sugarcane was treated with postemergence applications of some of the test chemicals formulated in the same manner. Plants were approximately 3- to 4-leaf stage for the postemergence treatments. Treated plants and controls were maintained in a greenhouse for 14 to 21 days, after which time all species were compared to controls and visually evaluated. […] A dash (-) response means no test result.
# johnsongrass = assay: Test F preemergence test; type: in vivo, Sorghum halepense; conditions: scale 0 to 100; for Plant response rating, Johnsongrass: 31 g ai/ha
# Description: as §3
# kochia = assay: Test F preemergence test; type: in vivo, Kochia scoparia; conditions: scale 0 to 100; for Plant response rating, Kochia: 31 g ai/ha
# Description: as §3
# purple nutsedge = assay: Test F preemergence test; type: in vivo, Cyperus rotundus; conditions: scale 0 to 100; for Plant response rating, Purple Nutsedge: 31 g ai/ha
# Description: as §3
# dallisgrass = assay: Test F preemergence test; type: in vivo, Paspalum dilatatum; conditions: scale 0 to 100; for Plant response rating, Dallisgrass: 31 g ai/ha
# Description: as §3
# broadleaf signalgrass = assay: Test F preemergence test; type: in vivo, Brachiaria platyphylla; conditions: scale 0 to 100; for Signalgrass plant response rating: preemergence; for Plant response rating, Signalgrass: Preemergence
# Description: as §3
# common groundsel = assay: Test F preemergence test; type: in vivo, Senecio vulgaris; conditions: scale 0 to 100; for Plant response rating, Groundsel: 31 g ai/ha
# Description: as §3
# itchgrass = assay: Test F preemergence test; type: in vivo, Rottboellia cochinchinensis; conditions: scale 0 to 100; for Plant response rating, Itchgrass: 31 g ai/ha
# Description: as §3
# [1] = Postemergence, 500 g ai/ha, 0 is no effect, 100 is complete control
# [2] = Preemergence, 125 g ai/ha, 0 no effect, 100 complete control
# [3] = 62 g ai/ha, Preemergence, scale 0 to 100
# [4] = 125 g ai/ha, preemergence, scale 0 (no effect) to 100 (complete control)
# [5] = Postemergence, 125 g ai/ha, scale 0 to 100, 0 no effect, 100 complete control
# [6] = Postemergence, 250 g ai/ha, scale 0 to 100, 0 no effect, 100 complete control
# [7] = Preemergence, 31 g ai/ha, scale 0 to 100 (0 no effect, 100 complete control)
# [8] = preemergence, 250 g ai/ha, scale 0 (no effect) to 100 (complete control)
smiles,measurement,setting,value
Cn1nc(C(F)(F)F)c(C[S+]([O-])c2ccc(F)c[n+]2[O-])c1OC(F)F (centres unmarked) [Compound 58],"Plant response rating, Barnyardgrass","barnyardgrass; Postemergence, 125 g ai/ha",80
same,Barnyardgrass plant response rating,barnyardgrass; [1],90
same,Barnyardgrass plant response rating,barnyardgrass; [2],90
same,"Plant response rating, Barnyardgrass","barnyardgrass; Preemergence, 500 g ai/ha",90
same,"Plant response rating, Velvetleaf","velvetleaf; Postemergence, 125 g ai/ha",60
same,Velvetleaf plant response rating,velvetleaf; [1],80
same,Velvetleaf plant response rating,velvetleaf; [2],60
same,"Plant response rating, Velvetleaf","velvetleaf; Preemergence, 500 g ai/ha",100
same,"Foxtail, Green plant response rating",green foxtail; [3],98
same,"Foxtail, Green plant response rating",green foxtail; [4],100
same,"Plant response rating (0 to 100), Foxtail, Green","green foxtail; Postemergence, 31 g ai/ha",0
same,"Plant response rating, Foxtail, Green","green foxtail; Postemergence, 62 g ai/ha, scale 0 to 100, 0 no effect, 100 complete control",25
same,"Plant response rating, Foxtail, Green",green foxtail; [5],50
same,"Plant response rating, Foxtail, Green",green foxtail; [6],80
same,"Plant response rating, Foxtail, Green",green foxtail; [7],70
same,"Foxtail, Green plant response rating",green foxtail; [8],100
same,"Ryegrass, Italian plant response rating",Italian ryegrass; [3],70
same,"Ryegrass, Italian plant response rating",Italian ryegrass; [4],98
same,"Plant response rating (0 to 100), Ryegrass, Italian","Italian ryegrass; Postemergence, 31 g ai/ha",0
same,"Plant response rating (0 to 100), Ryegrass, Italian","Italian ryegrass; Postemergence, 62 g ai/ha",40
same,"Plant response rating, Ryegrass, Italian",Italian ryegrass; [5],70
same,"Plant response rating, Ryegrass, Italian",Italian ryegrass; [6],90
same,"Plant response rating, Ryegrass, Italian",Italian ryegrass; [7],40
same,"Ryegrass, Italian plant response rating",Italian ryegrass; [8],100
same,Goosegrass plant response rating,"goosegrass; 62 g ai/ha, Preemergence",98
same,Goosegrass plant response rating,"goosegrass; 125 g ai/ha, preemergence",98
same,Goosegrass plant response rating,"goosegrass; 250 g ai/ha, preemergence",100
same,"Plant response rating, Goosegrass",goosegrass; Preemergence,70
same,Johnsongrass plant response rating,"johnsongrass; 62 g ai/ha, Preemergence",90
same,Johnsongrass plant response rating,"johnsongrass; 125 g ai/ha, preemergence",100
same,Johnsongrass plant response rating,"johnsongrass; 250 g ai/ha, preemergence",100
same,"Plant response rating, Johnsongrass",johnsongrass; Preemergence,80
same,Kochia plant response rating,"kochia; 62 g ai/ha, Preemergence",40
same,Kochia plant response rating,"kochia; 125 g ai/ha, preemergence",100
same,Kochia plant response rating,"kochia; 250 g ai/ha, preemergence",100
same,"Plant response rating, Kochia",kochia; Preemergence,20
same,Purple Nutsedge plant response rating,"purple nutsedge; 62 g ai/ha, Preemergence",80
same,Purple Nutsedge plant response rating,"purple nutsedge; 125 g ai/ha, preemergence",95
same,Purple Nutsedge plant response rating,"purple nutsedge; 250 g ai/ha, preemergence",95
same,"Plant response rating, Purple Nutsedge",purple nutsedge; Preemergence,0
same,Dallisgrass plant response rating,"dallisgrass; 62 g ai/ha, Preemergence",90
same,Dallisgrass plant response rating,"dallisgrass; 125 g ai/ha, preemergence",98
same,Dallisgrass plant response rating,"dallisgrass; 250 g ai/ha, preemergence",98
same,"Plant response rating, Dallisgrass",dallisgrass; Preemergence,75
same,Signalgrass plant response rating,broadleaf signalgrass; 125 g ai/ha,90
same,Signalgrass plant response rating,broadleaf signalgrass; 250 g ai/ha,98
same,"Plant response rating, Signalgrass",broadleaf signalgrass; 62 g ai/ha,80
same,"Plant response rating, Signalgrass",broadleaf signalgrass; 31 g ai/ha,30
same,Groundsel plant response rating,"common groundsel; 62 g ai/ha, Preemergence",60
same,Groundsel plant response rating,"common groundsel; 125 g ai/ha, preemergence",85
same,Groundsel plant response rating,"common groundsel; 250 g ai/ha, preemergence",100
same,"Plant response rating, Groundsel",common groundsel; Preemergence,20
same,Itchgrass plant response rating,"itchgrass; 62 g ai/ha, Preemergence",75
same,Itchgrass plant response rating,"itchgrass; 125 g ai/ha, preemergence",90
same,Itchgrass plant response rating,"itchgrass; 250 g ai/ha, preemergence",100
same,"Plant response rating, Itchgrass",itchgrass; Preemergence,35
CCc1cc[n+]([O-])c(S(=O)(=O)Cc2c(C(F)(F)F)nn(C)c2OCC(F)(F)F)c1 [Compound 60],"Plant response rating, Barnyardgrass","barnyardgrass; Postemergence, 125 g ai/ha",80
same,Barnyardgrass plant response rating,barnyardgrass; [1],90
same,Barnyardgrass plant response rating,barnyardgrass; [2],90
same,"Plant response rating, Barnyardgrass","barnyardgrass; Preemergence, 500 g ai/ha",100
same,"Plant response rating, Velvetleaf","velvetleaf; Postemergence, 125 g ai/ha",60
same,Velvetleaf plant response rating,velvetleaf; [1],70
same,Velvetleaf plant response rating,velvetleaf; [2],70
same,"Plant response rating, Velvetleaf","velvetleaf; Preemergence, 500 g ai/ha",100
same,"Foxtail, Green plant response rating",green foxtail; [3],100
same,"Foxtail, Green plant response rating",green foxtail; [4],100
same,"Plant response rating, Foxtail, Green",green foxtail; [7],85
same,"Foxtail, Green plant response rating",green foxtail; [8],100
same,"Ryegrass, Italian plant response rating",Italian ryegrass; [3],75
same,"Ryegrass, Italian plant response rating",Italian ryegrass; [4],80
same,"Plant response rating, Ryegrass, Italian",Italian ryegrass; [7],20
same,"Ryegrass, Italian plant response rating",Italian ryegrass; [8],90
same,Goosegrass plant response rating,"goosegrass; 62 g ai/ha, Preemergence",80
same,Goosegrass plant response rating,"goosegrass; 125 g ai/ha, preemergence",100
same,Goosegrass plant response rating,"goosegrass; 250 g ai/ha, preemergence",100
same,"Plant response rating, Goosegrass",goosegrass; Preemergence,80
same,Johnsongrass plant response rating,"johnsongrass; 62 g ai/ha, Preemergence",50
same,Johnsongrass plant response rating,"johnsongrass; 125 g ai/ha, preemergence",95
same,Johnsongrass plant response rating,"johnsongrass; 250 g ai/ha, preemergence",100
same,"Plant response rating, Johnsongrass",johnsongrass; Preemergence,0
same,Kochia plant response rating,"kochia; 62 g ai/ha, Preemergence",65
same,Kochia plant response rating,"kochia; 125 g ai/ha, preemergence",100
same,Kochia plant response rating,"kochia; 250 g ai/ha, preemergence",100
same,"Plant response rating, Kochia",kochia; Preemergence,0
same,Purple Nutsedge plant response rating,"purple nutsedge; 62 g ai/ha, Preemergence",50
same,Purple Nutsedge plant response rating,"purple nutsedge; 125 g ai/ha, preemergence",80
same,Purple Nutsedge plant response rating,"purple nutsedge; 250 g ai/ha, preemergence",90
same,"Plant response rating, Purple Nutsedge",purple nutsedge; Preemergence,0
same,Dallisgrass plant response rating,"dallisgrass; 62 g ai/ha, Preemergence",75
same,Dallisgrass plant response rating,"dallisgrass; 125 g ai/ha, preemergence",80
same,Dallisgrass plant response rating,"dallisgrass; 250 g ai/ha, preemergence",100
same,"Plant response rating, Dallisgrass",dallisgrass; Preemergence,75
same,Signalgrass plant response rating,broadleaf signalgrass; 125 g ai/ha,75
same,Signalgrass plant response rating,broadleaf signalgrass; 250 g ai/ha,100
same,"Plant response rating, Signalgrass",broadleaf signalgrass; 62 g ai/ha,75
same,"Plant response rating, Signalgrass",broadleaf signalgrass; 31 g ai/ha,30
same,Groundsel plant response rating,"common groundsel; 62 g ai/ha, Preemergence",60
same,Groundsel plant response rating,"common groundsel; 125 g ai/ha, preemergence",75
same,Groundsel plant response rating,"common groundsel; 250 g ai/ha, preemergence",95
same,"Plant response rating, Groundsel",common groundsel; Preemergence,0
same,Itchgrass plant response rating,"itchgrass; 62 g ai/ha, Preemergence",15
same,Itchgrass plant response rating,"itchgrass; 125 g ai/ha, preemergence",25
same,Itchgrass plant response rating,"itchgrass; 250 g ai/ha, preemergence",70
same,"Plant response rating, Itchgrass",itchgrass; Preemergence,0
